Results on eight compounds are retold here after patent US10000471B2, “Pyrazole P38 map kinase inhibitors” (Respivert Limited, priority 2010, dated 2018).

The structures appear in SMILES notation.

Data set [1] deals with T1, p38 MAPKα isoform (MAPK14) (Homo sapiens, UniProt Q16539).
T1 construct: purchased Invitrogen
Nature of the data set: Enzyme inhibition assay (FRET, Z-LYTE), p38 MAPKα via MAPKAP-K2 activation. The following applies: read-out: Enzyme Inhibition IC50 p38α. The format is biochemical. The protocol:
(§1) The enzyme inhibitory activities of compounds disclosed herein were determined by fluorescence resonance energy transfer (FRET) using synthetic peptides labelled with both donor and acceptor fluorophores (Z-LYTE, Invitrogen Ltd., Paisley, UK). Recombinant, phosphorylated p38 MAPKγ (MAPK12:Invitrogen) was diluted in HEPES buffer, mixed with the test compound at the desired final concentrations and incubated for 2 hr at RT. The FRET peptide (2 μM) and ATP (100 μM) were added to the enzyme/compound mixture and incubated for 1 hr. Development reagent (protease) was added for 1 hr prior to detection in a fluorescence microplate reader (Varioskan® Flash, ThermoFisher Scientific). The site-specific protease cleaves non-phosphorylated peptide only and eliminates the FRET signal. Phosphorylation levels of each reaction were calculated using the ratio of coumarin emission (donor) over fluorescein emission (acceptor) for which high ratios indicate high phosphorylation and low ratios indicate low phosphorylation levels. The percentage inhibition of each reaction was calculated relative to non-inhibited control and the 50% inhibitory concentration (IC50 value) then calculated from the concentration-response curve.
For the p38 MAPKα isoform (MAPK14: Invitrogen), enzyme activity was evaluated indirectly by determining the level of activation/phosphorylation of the down-stream molecule, MAPKAP-K2. The p38 MAPKα protein was mixed with the test compound for 2 hr at RT. […] Development reagent was then added and the mixture incubated for 1 hr before detection by fluorescence completed the assay protocol.

Another data set addresses T2, p38 MAPKγ (MAPK12) (Homo sapiens, UniProt P53778).
T2 construct: purchased Invitrogen
T2 sequence (P53778 1-367): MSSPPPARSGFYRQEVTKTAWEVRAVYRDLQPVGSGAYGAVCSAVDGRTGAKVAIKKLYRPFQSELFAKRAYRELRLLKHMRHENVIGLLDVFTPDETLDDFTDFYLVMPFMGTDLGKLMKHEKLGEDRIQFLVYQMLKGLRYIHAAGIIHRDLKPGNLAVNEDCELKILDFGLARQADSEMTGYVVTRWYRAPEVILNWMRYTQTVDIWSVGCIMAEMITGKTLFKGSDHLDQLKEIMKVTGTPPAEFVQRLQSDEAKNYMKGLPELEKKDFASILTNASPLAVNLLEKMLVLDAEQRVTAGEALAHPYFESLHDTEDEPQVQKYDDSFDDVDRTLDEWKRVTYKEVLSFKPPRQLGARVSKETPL
Description: Enzyme inhibition assay (FRET, Z-LYTE), p38 MAPKγ. The format is biochemical. The conditions noted are these: read-out: Enzyme Inhibition IC50 p38γ. The procedure:
as §1

Data set [2] has as its system TNFα release in THP-1 cells. Description: LPS-induced TNFα release in THP-1 cells. The format is cell-based, human. The following applies: Homo sapiens. The procedure: LPS-Induced TNFα Release in THP-1 Cells
THP-1 cells, a human monocytic cell line, were stimulated with 3 μg/mL of LPS (from E. Coli; 0111:B4, Sigma) for 4 hr and the supernatant collected for determination of the TNFα concentration by sandwich ELISA (Duo-set, R&D systems). The inhibition of TNFα production was calculated at each concentration by comparison with vehicle control. The 50% inhibitory concentration (IC50) was determined from the resultant concentration-response curve.

For data set [3], the system named is TNFα release in d-U937 cells. Description: LPS-induced TNFα release in d-U937 cells. The following applies: Homo sapiens, dU937, relative to 10 μg/mL BIRB796, read-out: LPS/TNFα REC50 d-U937. The format is cell-based, human. The protocol:
(§2) LPS-Induced TNFα/IL-8 Release in d-U937 Cells
(§3) U937 cells, a human monocytic cell line, were differentiated to macrophage-type cells by incubation with phorbol myristate acetate (PMA; 100 ng/ml) for 48 to 72 hr. Cells were pre-incubated with final concentrations of test compound for 2 hr and were then stimulated with 0.1 μg/mL of LPS (from E. Coli: O111:B4, Sigma) for 4 hr. The supernatant was collected for determination of TNFα and IL-8 concentrations by sandwich ELISA (Duo-set, R&D systems). The inhibition of TNFα production was calculated as a percentage of that achieved by 10 μg/mL of BIRB796 at each concentration of test compound by comparison against vehicle control. The relative 50% effective concentration (REC50) was determined from the resultant concentration-response curve. The inhibition of IL-8 production was calculated at each concentration of test compound by comparison with vehicle control. The 50% inhibitory concentration (IC50) was determined from the resultant concentration-response curve.

For data set [4], the system named is IL-8 release in d-U937 cells. Description: LPS-induced IL-8 release in d-U937 cells. The format is cell-based, human. The following applies: Homo sapiens, dU937. The protocol: as §2, §3
Data set [5] relates to ICAM-1 induction in BEAS2B cells. Nature of the data set: Poly I:C-induced ICAM-1 induction in BEAS2B cells. The format is cell-based, human. The conditions noted are these: Homo sapiens, BEAS-2B, read-out: PolyIC/ICAM1 IC50 BEAS2B. The procedure:
Poly I:C-Induced ICAM-1 Induction in BEAS2B Cells
Poly I:C (1 μg/mL) (Invivogene Ltd., San Diego, Calif.) was transfected into BEAS2B cells (human bronchial epithelial cells, ATCC) with Oligofectamine (Invitrogen, Carlsbad, Calif.). Cells were pre-incubated with final concentrations of test compounds for 2 hr and the level of ICAM1 expression on the cell surface was determined by cell-based ELISA. At a time point 18 hr after poly I:C transfection, cells were fixed with 4% formaldehyde in PBS and then endogenous peroxidase was quenched by the addition of 0.1% sodium azide and 1% hydrogen peroxide. Cells were washed with wash-buffer (0.1% Tween in PBS: PBS-Tween). and after blocking the wells with 5% milk in PBS-Tween for 1 hr, the cells were incubated with anti-human ICAM-1 antibody (Cell Signaling Technology, Danvers, Mass.) in 1% BSA PBS overnight at 4° C. The cells were washed with PBS-Tween and incubated with the secondary antibody (HRP-conjugated anti-rabbit IgG, Dako Ltd., Glostrup, Denmark). The ICAM-1 signal was detected by adding substrate and reading the absorbance at 450 nm against a reference wavelength of 655 nm using a spectrophotometer. The cells were then washed with PBS-Tween and total cell numbers in each well were determined by reading absorbance at 595 nm after Crystal Violet staining and elution by 1% SDS solution. The measured OD 450-655 readings were corrected for cell number by dividing with the OD595 reading in each well. The inhibition of ICAM-1 expression was calculated at each concentration of test compound by comparison with vehicle control. The 50% inhibitory concentration (IC50) was determined from the resultant concentration-response curve.

The test system of data set [6] is Differentiated U937 cells. Nature of the data set: Cell viability MTT assay. The format is cell-based, human. The following applies: negative = apparent increase in viability; for MTT Assay (Viability) 4 h d-U937, percentage loss of cell viability: 4 hr in 5% FCS; for MTT Assay (Viability) 24 h d-U937, percentage loss of cell viability: 24 h in 10% FCS. The procedure:
Differentiated U937 cells were pre-incubated with each test compound under two protocols: the first for 4 hr in 5% FCS and the second in 10% FCS for 24 h. The supernatant was replaced with 200 μL of new media and 10 μL of MTT stock solution (5 mg/mL) was added to each well. After incubation for 1 hr the media were removed, 200 μL of DMSO was added to each well and the plates were shaken lightly for 1 hr prior to reading the absorbance at 550 nm. The percentage loss of cell viability was calculated for each well relative to vehicle (0.5% DMSO) treatment. Consequently an apparent increase in cell viability for drug treatment relative to vehicle is tabulated as a negative percentage.

T1 sequence (Q16539 whole entry, canonical isoform): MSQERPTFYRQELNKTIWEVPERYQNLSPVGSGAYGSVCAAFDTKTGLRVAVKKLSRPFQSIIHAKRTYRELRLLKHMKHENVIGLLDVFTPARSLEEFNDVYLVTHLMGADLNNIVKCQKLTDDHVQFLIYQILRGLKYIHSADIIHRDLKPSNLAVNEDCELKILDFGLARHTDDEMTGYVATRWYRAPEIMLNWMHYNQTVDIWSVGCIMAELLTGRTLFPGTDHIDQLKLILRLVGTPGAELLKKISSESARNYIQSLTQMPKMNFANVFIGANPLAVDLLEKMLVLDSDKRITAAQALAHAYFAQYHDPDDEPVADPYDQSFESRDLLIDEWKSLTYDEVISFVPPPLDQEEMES

On to `COCC(=O)Nc1cc(Oc2ccc(NC(=O)Nc3cc(C(C)(C)C)nn3-c3ccc(C)cc3)c(F)c2)ccn1` [Example 1, N-(4-(4-(3-(3-tert-Butyl-1-p-tolyl-1H-pyrazol-5-yl)ureido)-3-fluorophenoxy)pyridin-2-yl)-2-methoxyacetamide], for which the IC50 stood at 105 nM in data set [1]; 40.5 nM on p38 MAPKγ (MAPK12); 0.9 nM in data set [2]; 9.6 nM in data set [4]; 8.8 nM in data set [5]. For the same compound, the EC50 in data set [3] is 2.3 nM. Further, in data set [6], the “MTT Assay (Viability) 4 h d-U937, percentage loss of cell viability” value was 1.7%. Further, the “MTT Assay (Viability) 24 h d-U937, percentage loss of cell viability” value in data set [6] is recorded as 76.1%.
As for `COCC(=O)Nc1cc(Oc2ccc(NC(=O)Nc3cc(C(C)(C)C)nn3-c3ccc(C)cc3)c(S(C)(=O)=O)c2)ccn1` [Example 2, N-(4-(4-(3-(3-tert-Butyl-1-p-tolyl-1H-pyrazol-5-yl)ureido)-3-(methylsulfonyl)phenoxy)pyridin-2-yl)-2-methoxyacetamide], the IC50 in data set [1] is 37.7 nM; at p38 MAPKγ (MAPK12), 366 nM; in data set [2], 5.3 nM; in data set [4], 174 nM; in data set [5], 427 nM. Moreover, the EC50 in data set [3] turned out to be 29.4 nM. Moreover, in data set [6], the “MTT Assay (Viability) 4 h d-U937, percentage loss of cell viability” value is reported as −3.1%. The “MTT Assay (Viability) 24 h d-U937, percentage loss of cell viability” value in data set [6] turned out to be 32.7%.
Regarding `COCC(=O)Nc1cc(Oc2ccc(NC(=O)Nc3cc(C(C)(C)C)nn3-c3ccc(C)cc3)c(C(F)(F)F)c2)ccn1` [Example 3, N-(4-(4-(3-(3-tert-Butyl-1-p-tolyl-1H-pyrazol-5-yl)ureido)-3-(trifluoromethyl)phenoxy)pyridin-2-yl)-2-methoxyacetamide], the IC50 amounted to 5.1 nM in data set [1]; 175 nM on p38 MAPKγ (MAPK12); 1 nM in data set [2]; 41.2 nM in data set [4]; 24.4 nM in data set [5]. In addition, the EC50 in data set [3] came out at 1.1 nM. The “MTT Assay (Viability) 4 h d-U937, percentage loss of cell viability” value in data set [6] was determined as 3.4%. In data set [6], the “MTT Assay (Viability) 24 h d-U937, percentage loss of cell viability” value came out at 22.9%.
With `COCC(=O)Nc1cc(Oc2ccc(NC(=O)Nc3cc(C(C)(C)C)nn3-c3ccc(C)cc3)c(Cl)c2C#N)ccn1` [Example 4, N-(4-(4-(3-(3-tert-Butyl-1-p-tolyl-1H-pyrazol-5-yl)ureido)-3-chloro-2-cyanophenoxy)pyridin-2-yl)-2-methoxyacetamide], the IC50 was 4.5 nM in data set [1]; 238 nM on p38 MAPKγ (MAPK12); 0.2 nM in data set [2]; 0.1 nM in data set [4]; 1.1 nM in data set [5]. Further, the EC50 in data set [3] was 0.1 nM. Besides, the “MTT Assay (Viability) 4 h d-U937, percentage loss of cell viability” value in data set [6] is on record as −24.1%. Further, the “MTT Assay (Viability) 24 h d-U937, percentage loss of cell viability” value in data set [6] amounted to 64.5%.
As to `COCC(=O)Nc1cc(Oc2ccc(NC(=O)Nc3cc(C(C)(C)C)nn3-c3ccc(C)cc3)c3c2CCCC3)ccn1` [Example 5, N-(4-(4-(3-(3-tert-Butyl-1-p-tolyl-1H-pyrazol-5-yl)ureido)-5,6,7,8-tetrahydronaphthalen-1-yloxy)pyridin-2-yl)-2-methoxyacetamide], the IC50 in data set [1] worked out at 18.7 nM; at p38 MAPKγ (MAPK12), 1360 nM; in data set [2] it was 1.4 nM; in data set [4], 50.6 nM; in data set [5], 21.9 nM. In data set [3], the EC50 came out at 0.4 nM. In data set [6], the “MTT Assay (Viability) 4 h d-U937, percentage loss of cell viability” value was −3.5%. Besides, in data set [6], the “MTT Assay (Viability) 24 h d-U937, percentage loss of cell viability” value was determined as 18.7%.
As to `COCC(=O)Nc1cc(Oc2ccc(NC(=O)Nc3cc(C(C)(C)C)nn3-c3ccc(C)cc3)c3cccnc23)ccn1` [Example 6, N-(4-(5-(3-(3-tert-butyl-1-p-tolyl-1H-pyrazol-5-yl)ureido)quinolin-8-yloxy)pyridin-2-yl)-2-methoxyacetamide], the IC50 came out at 6.7 nM in data set [1]; 57.9 nM on p38 MAPKγ (MAPK12); 1.6 nM in data set [2]; 3.9 nM in data set [4]; 7.2 nM in data set [5]. Besides, the EC50 in data set [3] was 0.1 nM. The “MTT Assay (Viability) 4 h d-U937, percentage loss of cell viability” value in data set [6] is recorded as −21.3%. For the same compound, the “MTT Assay (Viability) 24 h d-U937, percentage loss of cell viability” value in data set [6] is on record as −14.6%.
For the compound `COCC(=O)Nc1cc(Oc2ccc(NC(=O)Nc3cc(C(C)(C)C)nn3-c3ccc(C)cc3)c3[nH]ncc23)ccn1` [Example 7, N-(4-(7-(3-(3-tert-Butyl-1-p-tolyl-1H-pyrazol-5-yl)ureido)-1H-indazol-4-yloxy)pyridin-2-yl)-2-methoxyacetamide], the IC50 in data set [1] turned out to be 1.3 nM; at p38 MAPKγ (MAPK12), 36.6 nM; in data set [2] it was 111 nM; in data set [4] it was 124 nM; in data set [5], 150 nM. For the same compound, the EC50 in data set [3] worked out at 112 nM. In data set [6], the “MTT Assay (Viability) 4 h d-U937, percentage loss of cell viability” value was −2.0%. For the same compound, the “MTT Assay (Viability) 24 h d-U937, percentage loss of cell viability” value in data set [6] is 64.5%.
In the case of `CNCC(=O)Nc1cc(Oc2ccc(NC(=O)Nc3cc(C(C)(C)C)nn3-c3ccc(CO)cc3)c(Cl)c2Cl)ccn1` [Example 8, N-(4-(4-(3-(3-tert-Butyl-1-(4-(hydroxymethyl)phenyl)-1H-pyrazol-5-yl)ureido)-2,3-dichlorophenoxy)pyridin-2-yl)-2-(methylamino)acetamide], the IC50 was determined as 7.6 nM in data set [1]; 17.2 nM at p38 MAPKγ (MAPK12); 0.5 nM in data set [2]; 4.7 nM in data set [4]; 2.4 nM in data set [5]. Also, the EC50 in data set [3] is 0.9 nM. For the same compound, in data set [6], the “MTT Assay (Viability) 4 h d-U937, percentage loss of cell viability” value is given as −7.0%. In data set [6], the “MTT Assay (Viability) 24 h d-U937, percentage loss of cell viability” value is on record as 85.6%.
